# Read-outs that look alike come from different tables or passages of the source.
# What was measured:
# [1] = system: Nude Harlan Sprague-Dawley Mice/lung (A-549, Calu-1) tumors; conditions: cited from earlier work
# [2] = system: A/J mice lung adenomas; conditions: 50 mg/kg/d; cited from earlier work
# [3] = system: Glioma cell lines; conditions: cited from earlier work
# [4] = system: Various human tumor cell lines; conditions: cited from earlier work
# [5] = system: GLI1 and PTCH1 mRNA; experiment: qPCR of GLI1 and PTCH1 mRNA after MEK-1 or AKT inhibitors; assay type: cell-based, human; conditions: 4 h after treatment
# Experimental: Real-time quantitative PCR amplifications with different primers were carried out at 60° C. on an Opticon machine (MJ Research) using iQTM SYBR Green supermix (Biorad) and values calculated using the standard curve method. Human primer sequences were 5'→3': […] NO: 5) and […] NO: 6); […] NO: 11) and […] NO: 41) and NRAS-R: […] NO: 44); […] NO: 33) and […] NO: 34). For mice: […] NO: 45) and […] NO: 46); Sufu-[…] NO: 47) and Sufu-[…] NO: 48); […] NO: 49) and […] NO: 50); Tyrosinase-[…] NO: 51) and Tyrosinase-[…] NO: 53) and […] NO: 54); […] NO: 55) and […] NO: 56). […] Promega), and AKT (SH6; […] […] Control siRNA: […] […] Proc. Natl. Acad. Sci. USA.
# [6] = system: Frog Gli2; experiment: localization of myc-tagged GLI proteins in transfected COS-7 cells; assay type: cell-based; conditions: Gli2+RAS*+inhibitor, 1 hr
# Experimental: (§1) Cells were transfected (3 μg/p35 plate) with myc-tagged full-length CMV expression vectors for human GLI1 (Lee, J., Platt, K. A., Censullo, P. & Ruiz i Altaba, A. Gli1 is a target of Sonic hedgehog that induces ventral neural tube development. Development 124, 2537-2552 (1997)), HRAS-V12 (kindly provided by Dr. A. Pellicer, NYU) and LacZ with FUGENE (Roche). For selection, SK-MEL-2 and MeWo cells were transfected (4 μg/p60 plate) with PGK-neo and CMV-eGFP alone or in a 1/1/8 ratio with HRAS-12G, GLI3C′ΔClaI (Ruiz i Altaba 1999) or (frog) fGli2C′Δ (Ruiz i Altaba 1999), or in a 1/1/4/4 ratio with HRAS-12G/GLI3C′ΔClaI or HRAS-12G/fGli2C′Δ. After Geneticin (400 μg/ml, Gibco) selection for 20 days, colonies were stained with 0.5% crystal violet. Colony size was measured in duplicate dishes in three independent experiments. For subcellular localization, pCS2-Myc frog Gli2, […], human GLI3 and human GLI3C′ΔCla1 (Ruiz i Altaba, 1999) were transfected into COS-7 (ATCC) cells with our without HRAS (V12).
# [7] = system: Human GLI3Rep (GLI3C′ΔCla1); experiment: as above; assay type: cell-based; conditions: GLI3Rep+RAS*+inhibitor, 1 hr
# Experimental: as §1
# [8] = system: GLI1, PTCH1, BMI1, FOXM1, MITFM expression; experiment: qPCR gene expression in melanoma cultures; assay type: cell-based, human; conditions: 4 h after inhibitor; all cultures
# Experimental: Real-time quantitative PCR amplifications with different primers (Suppl. Materials) were carried out at 60° C. on an Opticon machine (MJ Research) using iQ™ SYBR Green supermix (Biorad) and values calculated using the standard curve method.
# (§2) Commercial N-SHH (R&D Systems) was used at 100 nM. 5E1 anti-SHH blocking antibody (Hybridoma Bank, University of Iowa) was used at 10 μg/ml. Forskolin (FK) and 1,9-dideoxyforskolin (ddFK; Sigma) were used at 50 μM. […] MEK-1 (U0126; Promega), EGFR (AG1478; Biosource) and AKT (SH6; Alexis corporation) inhibitors were used at 1, 10, and 40 μM, respectively, dissolved in DMSO. Drug treatments were for 48 h in 2.5% serum. BrdU (Sigma) was pulsed at 4 μg/ml for 2 h before fixation followed by immunodetection with anti-BrdU antibodies (BD Biosciences). The number of viable cells was assessed by Trypan blue exclusion (Promega).
# [9] = system: Me-3, SK-Mel2 and WM-115; experiment: BrdU incorporation after MEK1 or AKT inhibitors (Example 2); assay type: cell-based, human; conditions: 48 h
# Experimental: WM-115, SK-MEL-2 and COS7 cell lines (ATCC) were grown according to the specifications of the provider. The primary Me-3 melanoma (Stecca, B. et al. Melanocyte proliferation and melanoma growth, recurrence and metastasis require sustained SONIC HEDGEHOG-GLI signaling. Submitted. (2006)) was grown in E-MEM with 10% FBS (Hyclone), 1 mM sodium pyruvate (GIBCO) and 1 ng/ml EGF (GIBCO). Proliferating human melanocytes from foreskin (Promocell) were grown in M2 media (Promocell). Melanomas from ±6 month-old Tyr→NRAS^Q61K; Ink4a^−/− mice on a light coat color Dct^−/− background^13 were collected from the skin and lymph nodes. Tumors were dissociated and grown in E-MEM with 10% FBS, 1 mM sodium pyruvate (GIBCO) and 1 ng/ml EGF (GIBCO). Mouse embryonic fibroblasts (MEFs) were prepared from E14.5 Swiss Webster mouse embryos and grown in DMEM with 10% FBS.
# Forskolin (FK) and 1,9-dideoxyforskolin (ddFK; Sigma) were used at 50 μM. MEK-1 (U0126; Promega), and AKT (SH6; Alexis corporation) inhibitors were used at 1 and 40 μM, respectively, dissolved in DMSO. U0126 and SH6 were used for 1 h, 48 h post-transfection. Leptomycin B (LMB; Sigma) was used at 5 nM for 6 h, 48 h post-transfection. BrdU (Sigma) was pulsed at 4 μg/ml for 2 h before fixation followed by immunodetection with anti-BrdU antibodies (BD Biosciences). The number of viable cells was assessed by Trypan blue exclusion (Promega). […]
# [10] = system: SK-Mel2 cells; experiment: Propidium iodide FACS analyses; assay type: cell-based, human; conditions: 24 h, compared to DMSO-treated cells
# [11] = system: GLI1; experiment: localization of transfected GLI1 in COS7 cells (Example 2); assay type: cell-based, monkey; conditions: inhibitors for 1 h
# Experimental: (§3) Forskolin (FK) and 1,9-dideoxyforskolin (ddFK; Sigma) were used at 50 μM. MEK-1 (U0126; Promega), and AKT (SH6; Alexis corporation) inhibitors were used at 1 and 40 μM, respectively, dissolved in DMSO. U0126 and SH6 were used for 1 h, 48 h post-transfection. Leptomycin B (LMB; Sigma) was used at 5 nM for 6 h, 48 h post-transfection. BrdU (Sigma) was pulsed at 4 μg/ml for 2 h before fixation followed by immunodetection with anti-BrdU antibodies (BD Biosciences). The number of viable cells was assessed by Trypan blue exclusion (Promega). […] (SEQ ID NO: 57) (target-validated from Ambion). […] SEQ ID NO: 58) (Sanchez, P. et al. Inhibition of prostate cancer proliferation by interference with SONIC HEDGEHOG-GLI1 signaling. Proc. Natl. Acad. Sci. USA. 101, 12561-12566 (2004)). siRNA transfections (0.2 μM) were performed with Oligofectamine (Invitrogen) for 48 h.
# Cells were transfected (3 μg/p35 plate) with myc-tagged full-length CMV expression vectors with FUGENE (Roche). […]
# [12] = system: human melanoma primary cultures and cell lines; experiment: BrdU incorporation in melanoma primary cultures and cell lines; assay type: cell-based; conditions: 48 h; all four melanoma cell lines tested and Me-3
# Experimental: Human foreskin melanocytes (Promocell) were grown in serum-free M2 medium (Promocell). WM-115, SK-MEL-2, SK-MEL-5, MeWo and COS7 cell lines (ATCC) were grown as specified. Tumors were chopped, incubated in E-MEM (Sigma) containing collagenase A (300 U/ml, Worthington) and hyaluronidase (100 U/ml, Sigma), mechanically dissociated and plated in E-MEM with 10% FBS, 1 mM sodium pyruvate (GIBCO) and 1 ng/ml EGF (GIBCO). […] All melanoma samples and BCC were obtained following approved protocols.
# as §2
# [13] = system: GLI1-transfected WM-115, SK-MEL-2 and SK-MEL-5; experiment: GLI1-transfection enhanced BrdU incorporation, treatment with inhibitors; assay type: cell-based, human; conditions: 48 h treatment
# Experimental: as §2
# [14] = system: frog GLI1, frog Gli2, human GLI3 proteins; experiment: localization of Myc-tagged GLI proteins in transfected COS7 cells; assay type: cell-based
# Experimental: as §1
# [15] = system: GLI1, GLI3, GLI3R; experiment: localization of transfected GLI proteins in SK-Mel2 cells; assay type: cell-based, human
# Experimental: as §3
# Cells were transfected (3 μg/p35 plate) with myc-tagged full-length CMV expression vectors with FUGENE (Roche). Transfections were at equimolar amounts unless otherwise specified with combinations of pCS2-Myc-tagged human GLI1, GLI3, GLI3R (GLI3C′ΔClaI), frog Gli2R (Gli2C′) (Ruiz i Altaba, A. Gli proteins encode context-dependent positive and negative functions: implications for development and disease. Development 126, 3205-3216 (1999), pCMV-HA-tagged GLI1 (ref. 20), HRAS^V12G (from A. Pellicer), NRAS^Q61K (Ackermann, J. et al. Metastasizing melanoma formation caused by expression of activated N-RasQ61K on an INK4a-deficient background. Cancer Res. 65, 4005-4011 (2005)), activated (myristoylated) myc-tagged AKT1 (Upstate), activated MEK1 (p45MAPKK^S222D; from J. Pouyssegur), Myc-tagged SUFUH (Kogerman, P. et al. Mammalian suppressor-of-fused modulates nuclear-cytoplasmic shuttling of Gli-1. Nat Cell Biol. 1, 312-319 (1999)), and pCMV-eGFP or pCMV-lacZ.
# [16] = system: all forms of MEK; conditions: cited from earlier work
# [17] = system: SCID mice/melanoma (518A2, 607B); conditions: cited from earlier work
# [18] = system: Rat-1 cells; conditions: cited from earlier work
# [19] = system: Human melanoma cell lines; conditions: cited from earlier work
smiles,measurement,setting,value
CSCC[C@H](NC(=O)c1ccc(NC[C@@H](N)CS)cc1-c1ccccc1)C(=O)O [FTI-276],GROWTH INHIBITION,[1]; 70 mg/kg/d,70%-94%
same,GROWTH INHIBITION,"[1]; 10, 50, 100 mg/kg/d",75%
same,GROWTH INHIBITION,[2],58%
COC(=O)[C@H](CCSC)NC(=O)c1ccc(NC[C@@H](N)CS)cc1-c1ccccc1 [FTI-277],GROWTH INHIBITION,"[1]; 50 mg/kg/d, lung (A-549, Calu-1) tumors, NIH3T3",80%
same,IC50,[3],2 to 15.5 µM
O=C(Cc1ccncc1)N1CCC(=C2c3ccc(Cl)cc3CCc3cccnc32)CC1 [SCH44342],IC50,[4],1 µM
"N#CC(=C(N)Sc1ccccc1N)C(C#N)=C(N)Sc1ccccc1N [U0126, 1,4-diamino-2,3-dicyano-1,4-bis[2-aminophenylthio]butadiene]",GLI1 and PTCH1 mRNA levels,[5],rapid reduction of GLI1 and PTCH1 mRNA levels
same,cells with cytoplasmic (c) localization,[6],30%
same,cells with cytoplasmic (c) localization,[7],1%
same,GLI1 and PTCH1 levels,[8],reduction of GLI1 and PTCH1 levels
same,BrdU incorporation,[9],decreased BrdU incorporation
same,decrease in the number of dividing cells (S/G2/M),[10],30%
same,effect on oncogenic RAS-induced nuclear accumulation of GLI1,[11],reversed
same,BrdU incorporation,[12],decreased BrdU incorporation
same,effect on GLI1-enhanced proliferation,[13],reversed
same,localization of transfected GLI proteins without co-transfected RAS,[14],did not change the localization
same,effect on RAS-enhanced nuclear accumulation of GLI proteins,"[14]; treatment for 1 h, 24 h after transfection",reversed
same,localization of the constitutively nuclear GLI3R,[15],no effect
same,localization of GLI1,[15]; inhibitors for 1 h,increasing cytoplasmic localization of GLI1
same,localization of GLI3,[15]; inhibitors for 1 h,unaffected
same,higher affinity than PD 098059,[16],44- to 357 fold
"CC(C)=CCC/C(C)=C/CC/C(C)=C/CSc1ccccc1C(=O)O [FTS, S-farnesylthiosalicyclic acid]",GROWTH INHIBITION,[17]; 5 mg/kg/d,82-90% of controls
same,growth of human melanoma in SCID mice,"[17]; mouse, in vivo",significant reduction in the growth
same,IC50,[18],30 to 40 µM
same,IC50,[19],100 µM
